Assay results reported in patent US10488416B2, “Targeting breast cancer therapy based on stromal subtypes and CD146 composition” (The Regents of the University of Colorado, a Body Corporate, priority 2014, dated 2019).

Test system: MCF7 cells
Experiment: MCF7 invasion scratch wound assay through Matrigel in CAF conditioned media
Type: cell-based, human
Details: for effect on CD146neg CAF induced invasion: MCF7 in CD146neg CAF conditioned media

## COc1cc2ncnc(Nc3ccc(F)c(Cl)c3)c2cc1OCCCN1CCOCC1 [gefitinib]
  effect on CD146neg CAF induced invasion: successfully blocked
Listed as gefitibib
  effect on CD146neg CAF induced invasion: inhibited

B1: HBEGF: HBEGF added to CD146pos CAF conditioned media in the invasion assay (protein, UniProt Q99075 63-148, looked up)
Heparin-binding EGF-like …: DLQEADLDLLRVTLSSKPQALATPNKEEHGKRKKKGKGLGKKRDPCLRKYKDFCIHGECKYVKELRAPSCICHPGYHGERCHGLSL
MCF7 in CD146pos CAF conditioned media
  effect on invasion: stimulated
